Series [1] has as its system human prostate cancer cells. Particulars: human prostate cancer cells in vitro; cited from earlier work.
Series [2] can be described thus: plasma stability in 50% human plasma. Type of series: in vitro ADME. As to conditions: 50% fresh heparinized plasma, 24 hours, room temperature, HPLC and MALDI-TOF. The protocol: FIG. 5 depicts the stability of Ac-GKAFRR-L12ADT (SEQ ID NO:41) in human plasma after a 24 hour incubation, as determined by HPLC analysis. Ac-GKAFRR-L12ADT (SEQ ID NO:41) was incubated in 50% human plasma for 24 hours at room temperature. Peak 1 represents an unidentified plasma contaminant that was also present in control plasma. Peaks 2 and 3 both represent Ac-GKAFRR-L12ADT (SEQ ID NO:41) as confirmed by MALDI-TOF mass spectrometric analysis.
Mouse plasma was obtained from cardiac puncture of anesthetized mice prior to euthanization by CO2 overdose according to protocols approved by the Johns Hopkins Animal Care and Use Committee. Human plasma was obtained from discarded, pooled, and unlabeled clinical samples. Plasma was diluted to 50% in Tris buffer (50 mM Tris-HCl, 100 mM NaCl, pH 7.8). To this, test peptides/prodrugs were added to 250 or 500 μM final concentration. After the incubation period, one volume (200 μl) of acetonitrile was added to precipitate the protein fraction and the tube was centrifuged at 14,000 for 2 min. The supernatant was analyzed by C18-HPLC and the collected peaks were analyzed by MALDI-TOF as described above.
Arginine-containing peptides are potential substrates for the wide variety of other trypsin-like proteases that are present in the blood and may have residual activity in the blood. The plasma stability of an hK2 peptide substrate may therefore be limited and this would have significant consequences related to the development of an hK2 activated prodrug. Therefore, two fluorescence quenched hK2 peptide substrates peptides were incubated in 50% mouse or human plasma (diluted in PBS buffer) to determine stability using a plate-reader. As observed with arginine containing peptides from the SPOT analysis above, none of the arginine-containing, fluorescence quenched hK2peptide substrates were stable in human or mouse plasma. Fluorescence-quenched Y′GKAFRR-Dap-GK′ (SEQ ID NO:42) and Y′GKAFRRLGK′ (SEQ ID NO:21) (500 μM each) were hydrolyzed when incubated in 50% mouse or human plasma (FIG. 7). Mouse plasma degraded the peptides faster than human plasma (FIG. 7). […] In human plasma, more peptide remained after 3 hours (˜25%). […] The proteolytic activity from plasma was never affected by repeated freeze-thaw cycles or by storage of the mouse plasma alone at room temperature for several days.
To determine the plasma stability for the hK2 prodrug, the prodrug was incubated in 50% fresh heparinized (1%) plasma for 24 hours at room temperature, precipitated the proteins by adding one volume of 1% TFA in acetonitrile and analyzed the supernatant by HPLC. Unexpectedly, BPLC analysis after 24 hrs incubation in plasma yielded only a single peak corresponding to the hK2 prodrug (FIG. 5). MALDI-TOF MS of the isolated single peak confirmed the stability of the molecule.

Another series concerns Balb-C mice. The series can be described thus: in vivo toxicity, single and repeated intravenous injection. Set-up: species or system mouse. On the procedure: To determine in vivo toxicity of ac-GKAFRR-L12ADT (SEQ ID NO:41), Balb-C mice (Harlan) received a single intravenous injection of an increasing dose of prodrug. Mice were monitored for toxicity hourly for twelve hours and then daily×one week. Separate groups of three mice each received increasing doses of ac-GKAFRRL12ADT (SEQ ID NO:41). […] All animals receiving doses less than LD100 were alive and well up to 1 week after receiving a single dose. All procedures were performed according to protocols approved by the Johns Hopkins Animal Care and Use Committee.
Balb-C mice were treated in groups of 3with a single intravenous injection of increasing doses of the ac-GKAFRR-L12ADT (SEQ ID NO:41) prodrug to establish the dose that killed 100% of mice (i.e. LD100). […] All mice, however, tolerated a single intravenous dose of 3.67 μmoles/kg and this dose was then used for further dosing and pharmacokinetic studies.

Series [3] can be described thus: pharmacokinetics after single intravenous dose, plasma levels by LC/MS/MS. Type of series: in vivo, mouse. As to conditions: Balb-C mice, single intravenous dose 3.67 μmoles/kg. The protocol:
FIG. 9 depicts pharamacokinetic analysis of GKAFRR-L12ADT (SEQ ID NO:44) following single intravenous injection of 3.67 μmole/kg. Mice were treated in groups of 3 and then sacrificed at indicated time points. Data represent average±standard error of plasma concentrations as determined by LC-MS analysis.
Calibration standards consisted of ac-GKAFRR-L12ADT prodrug, RL12ADT or L12ADT spiked into mouse plasma and plasma samples from treated mice were analyzed by liquid chromatography coupled to a quadrupolequadripole mass spectrometer (LC/MS/MS) [PESciex API 3000]. A multistep gradient elution HPLC method was used to separate the ac-GKAFRR-L12ADT prodrug from the free RL12ADT and L12ADT with eluent A=2 mM ammonium acetate with 0.1% formic acid 1% acetic acid in deionized water and eluent B=90% acetonitrile/1% acetic acid/[…]. Samples were eluted through a Zorbax SB-C18 Rapid Resolution column (2/1×30 mm, 3.5 μm) at a flow rate of 0.3 ml/min and gradient of 100% A to 100% B over 12 minutes. Calibration was done using extracted standards of ac-GKAFRR-L12ADT added to and then extracted from mouse plasma in a range of 0.001-10 μM, and linear regression analysis was used to generate best-fit lines, from which peak areas of samples were converted to concentration of prodrug. Peak areas of RL12ADT and L12ADT were below limit of detection at all time points and, therefore, calibration was not performed. Single-dose pharmacokinetics were assessed by noncompartmental analysis (Gibaldi, M. and Perroer, D. Pharmacokinetics, 2nd edition, p. 407-409. New York, 1982) The area under the curve from time zero to infinity (AUC0-∞) was calculated with the linear trapezoidal method (Gibaldi, M. and Perroer, D. Pharmacokinetics, 2nd edition, p. 407-409. New York, 1982)). The terminal half-life (T1/2) was determined from the terminal slope (ke) on a log-linear plot of concentration versus time.
To determine pharmacokinetic parameters for the hK2-activated thapsigargin prodrug, Balb-C mice (n=3/timepoint) were treated with a single intravenous dose of 3.67 μmoles/kg of the ac-GKAFRR-L12ADT (SEQ ID NO:41) prodrug. At various time points (5, 10, 30 minutes and 1, 1.5, 2, 3, 4, 6, 12, 24 hrs) mice were sacrificed after blood was obtained by cardiac puncture. After precipitating serum proteins with acetonitrile, supernatants were evaluated by LC-MS to determine concentrations of ac-GKAFRR-L12ADT (SEQ ID NO:41), R-L12ADT and L12ADT at each time points. Areas under the curve were converted to concentrations based on a standard curve that was linear for concentrations ranging from 1 nM to 10,000 nM. […] Both RL12ADT and L12ADT were below the lower limit of detection (i.e. <1 nM) for all time points, FIG. 6.

In series [4] the test system is hK2. The series can be described thus: hK2, fluorescence-quenched peptides tested in solution. As to conditions: human, up to prolonged incubation.
Series [5] has as its system hK2. The series can be described thus: 8 μg/ml hK2 in PBS buffer. Particulars: human.
Another series concerns Cathepsin B. The series can be described thus: Cathepsin B, 1 μg/ml.
For a further series, the system named is Cathepsin D. Description: Cathepsin D, 1 μg/ml.
Series [6] in a line: 50% fresh heparinized (1%) plasma; 50% human plasma. Particulars: room temperature, up to 24 hours.
Series [7] relates to hK2. The series can be described thus: hK2 (4 μg/ml) in 50 mM Tris, 0.1 M NaCl, pH 7.8. As to conditions: human, room temperature, up to 24 hours.
The test system of the next series is Plasmin. The series can be described thus: Plasmin, 1 μg/ml.
Another series concerns Urokinase. The series can be described thus: Urokinase, 1 μg/ml.
The target of series [8] is T1, hK2 (Homo sapiens, UniProt P20151).
T1 construct: made in house
Description: on-bead digestion of PEGA-bound fluorescence-quenched peptides by hK2. As to conditions: 4 μg/ml hK2, PEGA resin. Format: biochemical. On the procedure:
For screening, approximately 1 ml of resin (˜65,000 beads) was first suspended in methanol in a Petri dish and examined under transilluminant UV light (302 nm) to detect any falsely positive fluorescent beads prior to addition of protease. After removal of ˜40-50 beads, the resin was washed with water and finally suspended in 10 ml buffer in a glass Petri dish. After a final screen for false-positives, hK2 was added from a frozen stock solution to make 4 μg/ml final. Fluorescent beads were selected and removed with a micropipette, washed with 1 M NaCl, water, DMF, MeOH, water and stored in MeOH at −20° C.
Additionally, Walle and co-workers (Thorpe, D. S. and Walle, S. (2000) Biochem. Biophys. Res. Commun. 269:591-595) published data from a small combinatorial library to find linkers for the optimal display of peptide ligands to various protein targets. They reported that the insertion of a dipeptide consisting of a cationic residue together with a hydrophobic residue presents a general method for optimizing peptide display on solid phase beads. […] The test peptide Y′GKAFRL-Dap-F-K′-PEGA (SEQ ID NO:53) was synthesized and observed that the time required to generate clearly detectable fluorescence on the beads was reduced to 4-5 hours compared to 10-12 hours for the same peptide sequence lacking the Dap-F linker. […]

Series [9] deals with T1, hK2. As to conditions: previously reported; cited from earlier work.
The mark [10] stands for this setting: five consecutive daily intravenous injections of 3.67 μmoles/kg.

Here are results for ten compounds from patent US7906477B2 (Genspera, Inc., priority 2002, dated 2011).

Square brackets hold non-standard residues; d marks the D form. Ends that are not written are not given here. Peptide text beside a SMILES is read from it. * marks the point of attachment. X1 = C/C=C(/C)C(=O)O[C@H]1C(C)=C2[C@H]([C@@H]1OC(=O)CCCCCCC)[C@@](C)(OC(C)=O)C[C@H](OC(=O)CCCCCCCCCCCN*)[C@@]1(O)[C@H]2OC(=O)[C@@]1(C)O; Tyr(3-NO2) = N[C@@H](Cc1ccc(O)c([N+](=O)[O-])c1)C(=O)O; AMC = Cc1cc(=O)oc2cc(N*)ccc12; Abz = aminobenzoic acid; Dap = NC[C@H](N)C(=O)O

T1 sequence (P20151 25-261): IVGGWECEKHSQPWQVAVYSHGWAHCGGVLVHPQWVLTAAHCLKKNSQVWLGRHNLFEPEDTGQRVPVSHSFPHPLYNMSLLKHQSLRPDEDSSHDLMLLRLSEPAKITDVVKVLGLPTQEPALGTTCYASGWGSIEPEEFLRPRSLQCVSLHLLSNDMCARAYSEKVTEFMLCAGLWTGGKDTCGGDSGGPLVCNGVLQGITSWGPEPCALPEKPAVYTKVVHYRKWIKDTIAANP

Turning to `CC=C(C)C(=O)OC1C(C)=C2C(C1OC(=O)CCCCCCC)C(C)(OC(C)=O)CC(OC(=O)CCCCCCCCCCCNC(=O)C(N)CC(C)C)C1(O)C2OC(=O)C1(C)O` [L12ADT, 8-O-(12-[L-leucinoylamino]dodecanoyl)-8-O-debutanoylthapsigargin], in [1], the LD50 is reported as roughly 30 nM.

As to `C/C=C(/C)C(=O)O[C@H]1C(C)=C2[C@H]([C@@H]1OC(=O)CCCCCCC)[C@@](C)(OC(C)=O)C[C@H](OC(=O)CCCCCCCCCCCNC(=O)[C@H](CC(C)C)NC(=O)[C@H](CCCNC(=N)N)NC(=O)[C@H](CCCNC(=N)N)NC(=O)[C@H](Cc1ccccc1)NC(=O)[C@H](C)NC(=O)[C@H](CCCCN)NC(=O)CNC(C)=O)[C@@]1(O)[C@H]2OC(=O)[C@@]1(C)O` [ac-GKAFRR-L12ADT] (Ac-GKAFRRL-X1), the “plasma stability of the prodrug (in words)” value in [2] was “No degradation products could be identified”. Moreover, in the series with Balb-C mice (Balb-C mice, single intravenous dose), the “single intravenous dose tolerated by all mice” value came out at 3.67 µmol/kg. In the series with Balb-C mice (setting [10]), the “toxicity of repeated dosing (in words)” value is listed as “without any deaths or observable toxicity” and the “weight loss over baseline” value is less than 15%. The “stability in the serum in vivo (in words)” value in [3] is listed as “highly stable to hydrolysis in the serum in vivo”. In [3] (mouse, plasma), the half-life (usually how long it takes for the measured level to halve) was determined as 40.7 ± 1.2 min and the highest level (Cmax) was 36.8 ± 7.2 µM. Besides, the AUC(0-inf) in series [3] (mouse, plasma, read-out: area under the curve (converted)) is 40.7 µM·h.

Take Y′GSKGHFKL-Dap-K′: in the series with hK2 [4], the not cleaved result is given as “not digested by hK2, even after prolonged incubation”.

In the case of Y′GSKGHFKL-Dap-F-K′, in the series with hK2 [5], the not cleaved entry is “did not show any hydrolysis”.

As for Abz-GKAFRRLY′, the not cleaved entry in the series on Cathepsin B and with Cathepsin D was “No appreciable hydrolysis; relative rate 1 (approximately 0.1% digestion in 1 hour)” in each case.

Regarding Ac-GKAFRR-L12ADT, the not cleaved entry in the series on Cathepsin B is recorded as “No appreciable hydrolysis; relative rate 1 (approximately 0.1% digestion in 1 hour)”; in series [6], “only a single peak corresponding to the hK2 prodrug after 24 hrs; no degradation products”; with Cathepsin D, “No appreciable hydrolysis; relative rate 1 (approximately 0.1% digestion in 1 hour)”; with Urokinase, “no activity on the prodrug; relative rate 1 (approximately 0.1% digestion in 1 hour)”. For the same compound, the cleaved bond entry with hK2 [7] is given as “Arg-Leu”; with Plasmin it was “arginine-arginine”.

As for Y′GSKGPFKL-Dap-K′, in the series with hK2 [4], the not cleaved entry was “not digested by hK2, even after prolonged incubation”.

Consider “Y′GKAFRLK′-PEGA: test hK2 peptide substrate on PEGA resin ([Tyr(3-NO2)]GKAFRLK(Abz)-{PEGA resin})”, for which, in the series with hK2 [8], the “incubation time to yield clearly detectable fluorescent beads” value was 10 to 12 h.

Take Pro-Phe-Arg-{AMC}: at hK2 [9], the Km – broadly, the concentration of substrate that gives half-maximal velocity – was 40 µM; the kcat (usually the number of substrate molecules converted per active site and unit of time at saturation) was 0.92 s⁻¹.

Regarding “Y′GKAFRL-Dap-F-K′-PEGA: test peptide on PEGA resin with Dap-F linker ([Tyr(3-NO2)]GKAFRL[Dap]FK(Abz)-{PEGA resin})”, the “incubation time to yield clearly detectable fluorescent beads” value with hK2 [8] lay within 4 to 5 h.
